Data as given in patent publication US10538555B2, “Macrocyclic inhibitors of the PD-1/PD-L1 and CD80(B7-1)/PD-L1 protein/protein interactions” (BRISTOL-MYERS SQUIBB COMPANY, priority 2014, dated 2020).
Read-outs that look alike come from different tables or passages of the source. Where a SMILES comes first, the peptide text is derived from it. Bridges are numbered along the chain shown (N, C = ends). [ ]: non-standard residue; d: D form. ξ: configuration not given here. Phe(3,4,5-F3) = N[C@@H](Cc1cc(F)c(F)c(F)c1)C(=O)O; Phe(4-CH2NH2) = NCc1ccc(C[C@H](N)C(=O)O)cc1; NMePhe(4-F) = CN[C@@H](Cc1ccc(F)cc1)C(=O)O; Bta = N[C@@H](Cc1csc2ccccc12)C(=O)O; Hyp = O=C(O)[C@@H]1C[C@@H](O)CN1; NMeF = CN[C@@H](Cc1ccccc1)C(=O)O; NMeNle = CCCC[C@H](NC)C(=O)O; Pip = O=C(O)[C@@H]1CCCCN1; dPip = O=C(O)[C@H]1CCCCN1; hSer = N[C@@H](CCO)C(=O)O; NMeA = CN[C@@H](C)C(=O)O; dThz = O=C(O)[C@H]1CSCN1; Dap = NC[C@H](N)C(=O)O; ξC = NC(CS)C(=O)O; Sar = CNCC(=O)O

Biological target: T1, Human PD-L1/PD-1 (Homo sapiens, UniProt Q9NZQ7)
T1 construct: TVMV protease cleavage site (C); made in house; host or cells: HEK293T cells
T1 sequence (Q9NZQ7 with tags, fused parts or gaps): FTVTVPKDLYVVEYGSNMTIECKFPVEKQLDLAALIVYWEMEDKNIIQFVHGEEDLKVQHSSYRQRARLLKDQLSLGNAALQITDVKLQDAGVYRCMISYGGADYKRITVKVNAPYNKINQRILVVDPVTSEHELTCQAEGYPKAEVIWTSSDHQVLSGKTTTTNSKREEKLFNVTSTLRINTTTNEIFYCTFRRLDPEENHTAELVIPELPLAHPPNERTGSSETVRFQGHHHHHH
Assay: HTRF Human PD-L1/PD-1 binding assay (PD-1-Ig/PD-L1-His)
Conditions: PD-L1-His 10 nM, PD-1-Ig 20 nM
In short: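 Inhibitors were preincubated 15 min with human PD-L1(18-239)-His (10 nM final), then PD-1(25-167)-Ig (20 nM final) was added for 15 min in dPBS/0.1% BSA/0.05% Tween-20. Eu-cryptate anti-Ig (1 nM) and APC anti-His (20 nM) were added; 665/620 nm ratio read after 30 min.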

[1] = class symbol, read-out: HTRF Human PD-L1/PD-1 Binding Assay IC50 Range

Row | SMILES | IC50 [1] | IC50 (read-out: HTRF Human PD-L1/PD-1 Binding Assay IC50)
1 | CCCC[C@H]1C(=O)N(C)CC(=O)N[C@@H](CC(N)=O)C(=O)N[C@@H](C(C)C)C(=O)N(C)[C@@H](Cc2ccccc2)C(=O)N[C@@H](CC(=O)O)C(=O)N(C)CC(=O)N[C@@H](Cc2c[nH]c3ccccc23)C(=O)N[C@@H](Cc2ccc(CN)cc2)C(=O)N[C@@H](CC(C)C)C(=O)N[C@H](C(=O)NCC(N)=O)CSCC(=O)N[C@@H](Cc2ccccc2)C(=O)N(C)[C@@H](Cc2ccccc2)C(=O)N1C [Example 3212] ({CH2CO}-F[NMeF][NMeNle][Sar]NV[NMeF]D[Sar]W[Phe(4-CH2NH2)]LCG-NH2; thioether N-13) | 10 to 99.9 nM | 
2 | CCCC[C@H]1C(=O)N2CCC[C@@H]2C(=O)N[C@@H](CN)C(=O)N[C@@H](C(C)C)C(=O)N(C)[C@@H](Cc2ccccc2)C(=O)N[C@@H](CC(=O)O)C(=O)N2CCCC[C@@H]2C(=O)N[C@@H](Cc2c[nH]c3ccccc23)C(=O)N[C@@H](Cc2ccc(O)cc2)C(=O)N[C@@H](CC(C)C)C(=O)N[C@H](C(=O)NCC(N)=O)CSCC(=O)N[C@@H](Cc2cc(F)c(F)c(F)c2)C(=O)N(C)[C@@H](Cc2ccc(F)cc2)C(=O)N1C [Example 10582] ({CH2CO}-[Phe(3,4,5-F3)][NMePhe(4-F)][NMeNle][dP][Dap]V[NMeF]D[dPip]WYLCG-NH2; thioether N-13) | 1 to 9.9 nM | 
3 | CCCC[C@H]1C(=O)N(C)[C@@H](CCCC)C(=O)N[C@@H](CCC(=O)O)C(=O)NC(C(=O)NCC(N)=O)CSCC(=O)N[C@@H](Cc2ccc(O)cc2)C(=O)N(C)[C@@H](C)C(=O)N[C@@H](CC(N)=O)C(=O)N2CCC[C@H]2C(=O)N[C@@H](Cc2c[nH]cn2)C(=O)N[C@@H](CC(N)=O)C(=O)N2CCC[C@H]2C(=O)N[C@@H](Cc2c[nH]c3ccccc23)C(=O)N[C@@H](CCO)C(=O)N[C@@H](Cc2c[nH]c3ccccc23)C(=O)N1C (stereo partly drawn) [Example 9186] ({CH2CO}-Y[NMeA]NPHNPW[hSer]W[NMeNle][NMeNle]E[ξC]G-NH2; thioether N-14) | 10 to 99.9 nM | 
4 | CCCC[C@H]1C(=O)N(C)[C@@H](CCCC)C(=O)N[C@@H](CCC(=O)O)C(=O)N[C@H](C(=O)NCC(N)=O)CSCC(=O)N[C@@H](Cc2ccc(O)cc2)C(=O)N2CCCC[C@H]2C(=O)N[C@@H](CC(=O)O)C(=O)N2CCC[C@H]2C(=O)N[C@@H](Cc2cnc[nH]2)C(=O)N[C@@H](CCC(N)=O)C(=O)N2C[C@H](O)C[C@H]2C(=O)N[C@@H](Cc2c[nH]c3ccccc23)C(=O)N[C@@H](CO)C(=O)N[C@@H](Cc2csc3ccccc23)C(=O)N1C [Example 1513] ({CH2CO}-Y[Pip]DPHQ[Hyp]WS[Bta][NMeNle][NMeNle]ECG-NH2; thioether N-14) |  | 5.3 nM
5 | CCCC[C@H]1C(=O)N(C)CC(=O)N[C@@H](CC(=O)O)C(=O)N[C@@H](C)C(=O)N(C)[C@@H](Cc2ccccc2)C(=O)N[C@@H](Cc2ccc(O)cc2)C(=O)N2CSC[C@@H]2C(=O)N[C@@H](Cc2c[nH]c3ccccc23)C(=O)N[C@@H](Cc2ccc(O)cc2)C(=O)N[C@@H](CC(C)C)C(=O)N[C@H](C(=O)NCC(N)=O)CSCC(=O)N[C@@H](Cc2ccccc2)C(=O)N(C)[C@@H](Cc2ccccc2)C(=O)N1C [Example 10082] ({CH2CO}-F[NMeF][NMeNle][Sar]DA[NMeF]Y[dThz]WYLCG-NH2; thioether N-13) | 100 to 990 nM | 
6 | CCCC[C@H]1C(=O)N(C)[C@@H](CCCC)C(=O)N[C@@H](CCCNC(=N)N)C(=O)NC(C(=O)NCC(N)=O)CSCC(=O)N[C@@H](Cc2ccc(O)cc2)C(=O)N(C)[C@@H](C)C(=O)N[C@@H](Cc2cnc[nH]2)C(=O)N2CCC[C@H]2C(=O)N[C@@H](CC(N)=O)C(=O)N[C@@H](CC(C)C)C(=O)N2CCC[C@H]2C(=O)N[C@@H](Cc2c[nH]c3ccccc23)C(=O)N[C@@H](CO)C(=O)N[C@@H](Cc2c[nH]c3ccccc23)C(=O)N1C (stereo partly drawn) [Example 9144] ({CH2CO}-Y[NMeA]HPNLPWSW[NMeNle][NMeNle]R[ξC]G-NH2; thioether N-14) | 1 to 9.9 nM | 
